Measured values taken from EP0888340B1, “4-(BENZO-1,3-DIOXOLYL)-PYRROLIDINE-3-CARBOXYLIC ACID DERIVATIVES AS ENDOTHELIN ANTAGONISTS” (Abbott Laboratories, priority 1996, dated 1997).

The molecules below were run against T1, ETB Receptor (Sus scrofa, UniProt P35463) (assay: ETB receptor binding assay: [125I]ET-3 binding to membranes). Details: test compound 1 µM; displacement of 0.1 nM [125I]ET-3; Porcine cerebellum membranes; 4 hours at 25 °C.
T1 construct: Porcine cerebellum was homogenized in 25 volumes (w/v) of 10 mM Hepes (pH 7.4); from tissue; host or cells: porcine cerebellum membranes
T1 sequence (P35463 27-443): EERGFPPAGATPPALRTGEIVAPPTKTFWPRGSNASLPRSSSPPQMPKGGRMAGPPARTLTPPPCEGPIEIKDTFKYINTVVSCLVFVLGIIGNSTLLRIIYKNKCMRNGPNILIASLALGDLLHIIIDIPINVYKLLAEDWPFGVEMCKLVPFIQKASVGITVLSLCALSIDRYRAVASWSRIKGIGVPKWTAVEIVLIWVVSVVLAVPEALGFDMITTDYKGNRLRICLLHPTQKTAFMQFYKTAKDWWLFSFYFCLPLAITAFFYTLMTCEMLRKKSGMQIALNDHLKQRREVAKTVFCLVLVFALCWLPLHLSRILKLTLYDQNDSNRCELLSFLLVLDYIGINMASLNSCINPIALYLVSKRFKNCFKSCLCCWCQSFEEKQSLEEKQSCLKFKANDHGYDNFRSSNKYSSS
Experimental: Preparation of membranes from Porcine cerebellum:
Porcine cerebellum was homogenized in 25 volumes (w/v) of 10 mM Hepes (pH 7.4) containing 0.25 M sucrose and protease inhibitors (3 mM EDTA, 0.1 mM PMSF, and 5 µg/ml Pepstatin A) by 3-10 sec polytron at 13,500 rpm with 10 sec intervals. The mixture was centrifuged at 1000xg for 10 min. The supernatant was collected and centrifuged at 30,000xg for 30 min. The precipitate was resuspended in Buffer A (20 mM Tris, 100 mM NaCl, 10 mM MgCl2, pH 7.4) containing the aforementioned protease inhibitors and centrifuged again. The final pellet was resuspended in Buffer A containing protease inhibitors and stored at -80°C until used. Protein content was determined by the Bio-Rad dye-binding protein assay.
[^125I]ET-3 binding to membranes:
Binding assays were performed in 96-well microtiter plates pretreated with 0.1% BSA. Membranes prepared from cells were diluted ∼100 fold in Buffer B (20 mM Tris, 100 mM NaCl, 10 mM MgCl2, pH 7.4, with 0.2% BSA, 0.1 mM PMSF, 5 µg/mL Pepstatin A, 0.025% bacitracin, and 3 mM EDTA) to a final concentration of 0.2 mg/mL of protein. In competition studies, membranes (0.02 mg) were incubated with 0.1 nM of [^125I]ET-3 in Buffer B (final volume: 0.2 mL) in the presence of increasing concentrations of unlabeled ET-3 or a test compound for 4 hours at 25 °C. After incubation, unbound ligands were separated from bound ligands by a vacuum filtration method using glass-fiber filter strips in PHD cell harvesters (Cambridge Technology, Inc., MA), followed by washing the filter strips with saline (1 mL) for three times. Nonspecific binding was determined in the presence of 1 µM ET-1. The per cent inhibition at a concentration of 1 µM is shown. […]

Row | SMILES | inhibition at 1 µM
1 | CCc1cc(C)cc(CC)c1NC(=O)CN1C[C@H](c2ccc3c(c2)OCO3)[C@@H](C(=O)O)[C@@H]1c1ccc(OC)cc1 [Example 22, trans,trans-2-(4-methoxyphenyl)-4-(1,3-benzodioxol-5-yl)-1-((2,6-diethyl-4-methyl)phenylaminocarbonylmethyl)-pyrrolidine-3-carboxylic acid] | 95.3%
2 | CCOc1ccc([C@H]2[C@H](C(=O)O)[C@@H](c3ccc4c(c3)OCO4)CN2CC(=O)Nc2c(CC)cccc2CC)cc1 [Example 23, (2R,3R,4S)-2-(4-ethoxyphenyl)-4-(1,3-benzodioxol-5-yl)-1-((2,6-diethyl)phenylaminocarbonylmethyl)-pyrrolidine-3-carboxylic acid] | 99.1%
3 | CCc1cc(C(=O)O)cc(CC)c1NC(=O)CN1C[C@H](c2ccc3c(c2)OCO3)[C@@H](C(=O)O)[C@@H]1c1ccc(OC)cc1 [Example 24, trans,trans-2-(4-methoxyphenyl)-4-(1,3-benzodioxol-5-yl)-1-((4-carboxy-2,6-diethyl)phenylaminocarbonylmethyl)-pyrrolidine-3-carboxylic acid] | 93.3%
4 | CCc1cc([N+](=O)[O-])cc(CC)c1NC(=O)CN1C[C@H](c2ccc3c(c2)OCO3)[C@@H](C(=O)O)[C@@H]1c1ccc(OC)cc1 [Example 25, trans,trans-2-(4-methoxyphenyl)-4-(1,3-benzodioxol-5-yl)-1-((4-nitro-2,6-diethyl)phenylaminocarbonylmethyl)-pyrrolidine-3-carboxylic acid] | 95.7%
5 | COc1ccc([C@H]2[C@H](C(=O)O)[C@@H](c3ccc4c(c3)OCO4)CN2CC(=O)Nc2c(C)cccc2C(C)C)cc1 [Example 26, trans,trans-2-(4-methoxyphenyl)-4-(1,3-benzodioxol-5-yl)-1-((2-isopropyl-6-methyl)phenylaminocarbonylmethyl)-pyrrolidine-3-carboxylic acid] | 98%
6 | CCc1cccc(OC)c1NC(=O)CN1C[C@H](c2ccc3c(c2)OCO3)[C@@H](C(=O)O)[C@@H]1c1ccc(OC)cc1 [Example 27, trans,trans-2-(4-Methoxyphenyl)-4-(1,3-benzodioxol-5-yl)-1-(N-(2-ethyl-6-methoxy)phenylaminocarbonylmethyl)-pyrrolidine-3-carboxylic acid] | 98.8%
